# Results: PMC11589458, “Development of bombesin-tubulysin conjugates using multicomponent chemistry to functionalize both the payload and the homing peptide” (Frontiers in Pharmacology, 2024)
# Where two headings read alike, the source gives them in different places. Peptide text beside a SMILES is read from it. * marks the point of attachment. X1 = CCCO[C@H](C[C@H](C(C)C)N(CC(=O)NCCC(C)(C)SSCCC(=O)*)C(=O)[C@@H](NC(=O)[C@H]1CCCCN1C)[C@@H](C)CC)c1nc(C(=O)N[C@@H](Cc2ccccc2)C[C@H](C)C(=O)O)cs1; X2 = CCCO[C@H](C[C@H](C(C)C)N(CC(=O)NCCSSCCC(=O)*)C(=O)[C@@H](NC(=O)[C@H]1CCCCN1C)[C@@H](C)CC)c1nc(C(=O)N[C@@H](Cc2ccccc2)C[C@H](C)C(=O)O)cs1
# Tests used:
# MDA-MB-231 (TNBC) cells = assay type: cell-based, human; details: 6 h
# Procedure: (§1) The actual GRPR expression levels of these cell lines were checked by conducting RT-qPCR, as described in the SI. […] The cell viability and proliferation assays were carried out by using a resazurin-based fluorometric assay. The cells were exposed to the bombesin conjugates 20, 21, and 22 for initial 6 h and 48 h, and regardless of the initial incubation time, the cells were then allowed to grow until 72 h in sum were finalized, after which the cell viability was determined (see the SI).
# (§2) FIGURE 2 (A) Relative human GRPR (mRNA) expression levels in the cell lines used for the flow cytometry and cell viability studies, as detected by using RT-qPCR (n = 3). Data were analyzed by conducting the ΔΔCt methodology using GAPDH as a reference gene and normalized to the GRPR expression level of non-cancerous MCF-10A breast cells as a “healthy” cell reference (set to 1.0). Statistical significance was tested by using an unpaired t-test (*p < 0.05). (B–D) Cell viability of human cancer (T-47D, PC-3, MDA-MB-231, and HCT-116) and non-cancer (MCF-10A) cell lines after 6 h initial treatment with the bombesin-tubugi conjugates 20 (normal disulfide), 21 (hindered disulfide), and 22 (hindered disulfide and lipidated), medium exchange and subsequent cell cultivation until finalization of 72 h, and subsequent measurement by using fluorometric resazurin assay read-out. For control and data normalization, cells were routinely treated in parallel with 0.5% (v/v) DMSO (negative control), and as a positive cytotoxicity control with 100 µM digitonin (for data normalization set to 0% cell viability), both in standard growth medium. Each data point was determined with 3-4 biological replicates, each with technical triplicates. The indicated concentrations are IC50 values as calculated based on the non-linear regression dose-response curves as drawn by using GraphPad Prism 8 software. Error bars indicate the 95% confidence interval. TEXT PRINTED IN THE PICTURE: (B) 20: T-47D (HR+ breast cancer) 594.2 nM (95% CI: 475.2 - n.d. nM); PC-3 (prostate cancer) 695.3 nM (95% CI: 595.6 - n.d. nM); MDA-MB-231 (TNBC) 626.8 nM (95% CI: 430.4 - n.d. nM); HCT-116 (colon cancer) 1,315 nM (95% CI: n.d. - 6,114 nM); MCF-10A (healthy breast) ~ 3,200 nM (95% CI: n.d.) | (C) 21: T-47D (HR+ breast cancer) 740.9 nM (95% CI: 598.2 - 950.1 nM); PC-3 (prostate cancer) 716.4 nM (95% CI: 529.4 - 997.2 nM); MDA-MB-231 (TNBC) 357.0 nM (95% CI: n.d. - 606.4 nM); HCT-116 (colon cancer) ~ 2,000 nM (95% CI: n.d.); MCF-10A (healthy breast) ~ 4,000 nM (95% CI: n.d.) | (D) 22: T-47D (HR+ breast cancer) 70.9 nM (95% CI: 39.3 - 122.4 nM); PC-3 (prostate cancer) 110.7 nM (95% CI: 66.4 - 116.8 nM); MDA-MB-231 (TNBC) 87.8 nM (95% CI: 83.3 - 148.4 nM) […]
# (§3) Figure S50. Cell viability of human cancer (T-47D, PC-3, MDA-MB-231) and non-cancer (184B5) cell lines after 6 h initial treatment with the bombesin-tubugi conjugate 22 and its non-conjugated tubugi payload 10b, medium exchange and subsequent cell cultivation until finalization of 72 h, and subsequent measurement by using fluorometric resazurin assay read-out. Each data point was determined in at least 3-4 biological replicates each with technical triplicates. The indicated concentrations are IC50 values as calculated based on the non-linear regression dose-response curves as drawn by using GraphPad Prism 8 software. Error bars indicate the 95% confidence interval.
# (§4) (1 picture or pasted object on this page, not shown here)
# [1] = test system: PC-3 (prostate cancer) cells; assay type: cell-based, human; details: 6 h
# Procedure: (§5) [formula] Scheme 1 (A) Solid-phase synthesis of tubugi analogs functionalized with a thiol group at the internal amide N-substituent. WR = Wang resin. (B) Evaluation of the anti-proliferative activity: tubugi effects on cell viability, as determined by a resazurin assay for human prostate cancer PC-3 cells and human colon cancer HCT-116 cells treated for 48 h with tubugi 10a (red dots and line) and tubugi 10b (blue triangles and line). For control and data normalization, cells were routinely treated in parallel with 0.5% (v/v) DMSO (negative control), and as a positive cytotoxicity control with 100 µM digitonin (for data normalization set to 0% cell viability), both in standard growth medium.
# as §1
# FIGURE 2 (A) Relative human GRPR (mRNA) expression levels in the cell lines used for the flow cytometry and cell viability studies, as detected by using RT-qPCR (n = 3). Data were analyzed by conducting the ΔΔCt methodology using GAPDH as a reference gene and normalized to the GRPR expression level of non-cancerous MCF-10A breast cells as a “healthy” cell reference (set to 1.0). […] (B–D) Cell viability of human cancer (T-47D, PC-3, MDA-MB-231, and HCT-116) and non-cancer (MCF-10A) cell lines after 6 h initial treatment with the bombesin-tubugi conjugates 20 (normal disulfide), 21 (hindered disulfide), and 22 (hindered disulfide and lipidated), medium exchange and subsequent cell cultivation until finalization of 72 h, and subsequent measurement by using fluorometric resazurin assay read-out. […] Each data point was determined with 3-4 biological replicates, each with technical triplicates. […]
# [2] = test system: MCF-10A (non-cancer, healthy breast epithelium) cells; experiment: Resazurin cell viability assay, MCF-10A; assay type: cell-based, human; details: for fold higher IC50 in GRPR-lowest expressing healthy MCF-10A than in higher GRPR-expressing cancer cells: compared with T-47D (20) or T-47D and PC-3 (21); for IC50: MCF-10A
# Procedure: as §1
# (§6) FIGURE 2 (A) Relative human GRPR (mRNA) expression levels in the cell lines used for the flow cytometry and cell viability studies, as detected by using RT-qPCR (n = 3). Data were analyzed by conducting the ΔΔCt methodology using GAPDH as a reference gene and normalized to the GRPR expression level of non-cancerous MCF-10A breast cells as a “healthy” cell reference (set to 1.0). Statistical significance was tested by using an unpaired t-test (*p < 0.05). (B–D) Cell viability of human cancer (T-47D, PC-3, MDA-MB-231, and HCT-116) and non-cancer (MCF-10A) cell lines after 6 h initial treatment with the bombesin-tubugi conjugates 20 (normal disulfide), 21 (hindered disulfide), and 22 (hindered disulfide and lipidated), medium exchange and subsequent cell cultivation until finalization of 72 h, and subsequent measurement by using fluorometric resazurin assay read-out. For control and data normalization, cells were routinely treated in parallel with 0.5% (v/v) DMSO (negative control), and as a positive cytotoxicity control with 100 µM digitonin (for data normalization set to 0% cell viability), both in standard growth medium. Each data point was determined with 3-4 biological replicates, each with technical triplicates. The indicated concentrations are IC50 values as calculated based on the non-linear regression dose-response curves as drawn by using GraphPad Prism 8 software. Error bars indicate the 95% confidence interval. TEXT PRINTED IN THE PICTURE: (B) 20: T-47D (HR+ breast cancer) 594.2 nM (95% CI: 475.2 - n.d. nM); PC-3 (prostate cancer) 695.3 nM (95% CI: 595.6 - n.d. nM); MDA-MB-231 (TNBC) 626.8 nM (95% CI: 430.4 - n.d. nM); HCT-116 (colon cancer) 1,315 nM (95% CI: n.d. - 6,114 nM); MCF-10A (healthy breast) ~ 3,200 nM (95% CI: n.d.) | (C) 21: T-47D (HR+ breast cancer) 740.9 nM (95% CI: 598.2 - 950.1 nM); PC-3 (prostate cancer) 716.4 nM (95% CI: 529.4 - 997.2 nM); MDA-MB-231 (TNBC) 357.0 nM (95% CI: n.d. - 606.4 nM); HCT-116 (colon cancer) ~ 2,000 nM (95% CI: n.d.); MCF-10A (healthy breast) ~ 4,000 nM (95% CI: n.d.) | (D) 22: T-47D (HR+ breast cancer) 70.9 nM (95% CI: 39.3 - 122.4 nM); PC-3 (prostate cancer) 110.7 nM (95% CI: 66.4 - 116.8 nM); MDA-MB-231 (TNBC) 87.8 nM (95% CI: 83.3 - 148.4 nM)
# [3] = test system: HCT-116 (colon cancer) cells; experiment: Resazurin cell viability / anti-proliferation assay, HCT-116; assay type: cell-based, human; details: for fold higher IC50 in GRPR-lower expressing HCT-116 than in higher GRPR-expressing cancer cells: compared with T-47D (20) or T-47D and PC-3 (21); for IC50: HCT-116
# Procedure: as §5, §1, §6
# [4] = test system: T-47D (HR+ breast cancer) cells; assay type: cell-based, human; details: 6 h
# Procedure: as §1, §2, §3, §4
# [5] = Resazurin cell viability assay, the three GRPR-overexpressing cancer cell lines taken together; assay type: cell-based, human; details: 6 h initial treatment; read-out: selectivity: fold higher cytotoxicity for GRPR-overexpressing cells than for healthy 184B5 cells
# [6] = test system: T-47D, PC-3 and MDA-MB-231 cells; experiment: as above; assay type: cell-based, human; details: 6 h initial treatment
# [7] = test system: 184B5 (healthy breast) cells; details: 6 h
# [8] = 6 h initial treatment, read-out: IC50
# [9] = 6 h initial treatment, medium exchange, cultivation until 72 h, fluorometric resazurin read-out, 3-4 biological replicates, technical triplicates, read-out: IC50
Compound,IC50 (MDA-MB-231 (TNBC) cells),IC50 [1],fold higher IC50 in GRPR-lowest expressing healthy MCF-10A than in higher GRPR-expressing cancer cells ([2]; 6 h initial treatment),"IC50 [2, 8]",IC50 ([2]; 48 h initial treatment),fold higher IC50 in GRPR-lower expressing HCT-116 than in higher GRPR-expressing cancer cells ([3]; 6 h initial treatment),"IC50 [3, 9]","IC50 [3, 8]",IC50 ([3]; 48 h initial treatment),IC50 [4],"IC50 [2, 9]",selectivity ratio [5],"IC50 ([6]; T-47D, PC-3, MDA-MB-231, read-out: IC50 (range over cell lines))",fold more potent than the non-lipidated conjugates 20 and 21 ([6]; three cancer cells overexpressing the GRPR),IC50 [7]
CCCO[C@H](C[C@H](C(C)C)N(CC(=O)NCCSSCCC(=O)NCCCC[C@H](N)C(=O)N[C@@H](CC(N)=O)C(=O)N[C@@H](CCC(N)=O)C(=O)N[C@@H](Cc1c[nH]c2ccccc12)C(=O)N[C@@H](C)C(=O)N[C@H](C(=O)NCC(=O)N[C@@H](Cc1c[nH]cn1)C(=O)N[C@@H](CC(C)C)C(=O)N[C@@H](CCSC)C(N)=O)C(C)C)C(=O)[C@@H](NC(=O)[C@H]1CCCCN1C)[C@@H](C)CC)c1nc(C(=O)N[C@@H](Cc2ccccc2)C[C@H](C)C(=O)O)cs1 [compound 20] (H-K(X2)NQWAVGHLM-NH2),627 nM,695 nM,~5.5 fold,~3200 nM,nanomolar range,approximately 2 fold,1320 nM,~1300 nM,nanomolar range,,,,,,
CCCO[C@H](C[C@H](C(C)C)N(CC(=O)NCCC(C)(C)SSCCC(=O)NCCCC[C@H](N)C(=O)N[C@@H](CC(N)=O)C(=O)N[C@@H](CCC(N)=O)C(=O)N[C@@H](Cc1c[nH]c2ccccc12)C(=O)N[C@@H](C)C(=O)N[C@H](C(=O)NCC(=O)N[C@@H](Cc1c[nH]cn1)C(=O)N[C@@H](CC(C)C)C(=O)N[C@@H](CCSC)C(N)=O)C(C)C)C(=O)[C@@H](NC(=O)[C@H]1CCCCN1C)[C@@H](C)CC)c1nc(C(=O)N[C@@H](Cc2ccccc2)C[C@H](C)C(=O)O)cs1 [compound 21] (H-K(X1)NQWAVGHLM-NH2),357 nM,716 nM,~5.5 fold,,nanomolar range,approximately 2.5 fold,~2000 nM,,nanomolar range,741 nM,~4000 nM,,,,
CCCCCCCCCCCCCCNC(=O)CN(CCCC[C@H](N)C(=O)N[C@@H](CC(N)=O)C(=O)N[C@@H](CCC(N)=O)C(=O)N[C@@H](Cc1c[nH]c2ccccc12)C(=O)N[C@@H](C)C(=O)N[C@H](C(=O)NCC(=O)N[C@@H](Cc1c[nH]cn1)C(=O)N[C@@H](CC(C)C)C(=O)N[C@@H](CCSC)C(N)=O)C(C)C)C(=O)CCSSC(C)(C)CCNC(=O)CN(C(=O)[C@@H](NC(=O)[C@H]1CCCCN1C)[C@@H](C)CC)[C@H](C[C@@H](OCCC)c1nc(C(=O)N[C@@H](Cc2ccccc2)C[C@H](C)C(=O)O)cs1)C(C)C [compound 22],87.8 nM,111 nM,,,,,,,,70.9 nM,,3.5 to 5.5,70 to 110 nM,4- to 10 fold,392 nM
